The text below walks through data of patent US6919190B2, “Regulation of carbon assimilation” (priority 1999, dated 2005).

Experiment [1] deals with PEP carboxylase of Corynebacterium glutamicum strain BF100 (lysine-producing). The experiment is described as follows: PEP carboxylase activity in crude extract, lysine-producing strain. Format: biochemical. Conditions: relative to Complete = 100%, change in absorbance at 340 nm/min. As for the experimental part: (§1) It is possible for the measurement of the enzyme activity to use a spectrometric method (Yoshinage, T., et al., J. Biochem. 68:747-750 (1970)) and the like. For example, when the enzyme assay is measured in a continuous or kinetic mode while the reaction is occurring, the reaction can be measured spectrophotometrically by following the decrease in the absorbance (usually at 340 nanometers).
(§2) Activity units were measured spectrophotometrically as the change in absorbance (340 nm/min) using crude extracts.

Experiment [2] deals with T1, PEP carboxylase from a strain of Medicago sativa (Medicago sativa, UniProt Q02735).
T1 sequence (Q02735 1-966): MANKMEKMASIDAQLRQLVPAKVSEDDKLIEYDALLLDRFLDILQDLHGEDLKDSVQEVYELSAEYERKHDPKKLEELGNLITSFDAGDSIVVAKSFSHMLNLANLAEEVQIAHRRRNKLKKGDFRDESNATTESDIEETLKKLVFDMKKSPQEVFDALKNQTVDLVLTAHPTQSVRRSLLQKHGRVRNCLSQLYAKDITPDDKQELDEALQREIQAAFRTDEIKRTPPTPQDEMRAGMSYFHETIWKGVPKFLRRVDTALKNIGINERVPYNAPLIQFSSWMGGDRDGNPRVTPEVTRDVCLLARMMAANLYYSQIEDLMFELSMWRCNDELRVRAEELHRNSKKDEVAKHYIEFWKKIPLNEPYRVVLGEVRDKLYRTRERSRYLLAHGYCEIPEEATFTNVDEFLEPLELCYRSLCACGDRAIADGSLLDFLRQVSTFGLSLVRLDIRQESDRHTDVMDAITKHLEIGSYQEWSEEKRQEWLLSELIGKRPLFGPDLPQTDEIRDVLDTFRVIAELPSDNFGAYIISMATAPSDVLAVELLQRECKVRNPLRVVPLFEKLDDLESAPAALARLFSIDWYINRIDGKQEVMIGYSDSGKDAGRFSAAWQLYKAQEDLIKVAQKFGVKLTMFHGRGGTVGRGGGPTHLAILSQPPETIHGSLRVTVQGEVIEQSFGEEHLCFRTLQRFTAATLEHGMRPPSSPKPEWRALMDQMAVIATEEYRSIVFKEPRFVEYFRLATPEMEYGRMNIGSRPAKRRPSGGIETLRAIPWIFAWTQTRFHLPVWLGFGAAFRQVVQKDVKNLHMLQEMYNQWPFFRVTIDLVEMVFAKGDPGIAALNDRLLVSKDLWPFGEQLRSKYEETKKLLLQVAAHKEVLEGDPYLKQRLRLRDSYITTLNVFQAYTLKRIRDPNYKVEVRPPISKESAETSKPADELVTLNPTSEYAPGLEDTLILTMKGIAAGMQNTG
Conditions: Vance et al., Plant Physiol. 75:261-264 (1984); cited from earlier work.

For experiment [3], the target named is T2, PEP carboxylase of Corynebacterium glutamicum strain ATCC 13032 (wild-type) (Corynebacterium glutamicum, UniProt P12880).
T2 construct: endogenous in cells; host or cells: Corynebacterium glutamicum ATCC 13032, crude extract
T2 sequence (P12880 whole entry): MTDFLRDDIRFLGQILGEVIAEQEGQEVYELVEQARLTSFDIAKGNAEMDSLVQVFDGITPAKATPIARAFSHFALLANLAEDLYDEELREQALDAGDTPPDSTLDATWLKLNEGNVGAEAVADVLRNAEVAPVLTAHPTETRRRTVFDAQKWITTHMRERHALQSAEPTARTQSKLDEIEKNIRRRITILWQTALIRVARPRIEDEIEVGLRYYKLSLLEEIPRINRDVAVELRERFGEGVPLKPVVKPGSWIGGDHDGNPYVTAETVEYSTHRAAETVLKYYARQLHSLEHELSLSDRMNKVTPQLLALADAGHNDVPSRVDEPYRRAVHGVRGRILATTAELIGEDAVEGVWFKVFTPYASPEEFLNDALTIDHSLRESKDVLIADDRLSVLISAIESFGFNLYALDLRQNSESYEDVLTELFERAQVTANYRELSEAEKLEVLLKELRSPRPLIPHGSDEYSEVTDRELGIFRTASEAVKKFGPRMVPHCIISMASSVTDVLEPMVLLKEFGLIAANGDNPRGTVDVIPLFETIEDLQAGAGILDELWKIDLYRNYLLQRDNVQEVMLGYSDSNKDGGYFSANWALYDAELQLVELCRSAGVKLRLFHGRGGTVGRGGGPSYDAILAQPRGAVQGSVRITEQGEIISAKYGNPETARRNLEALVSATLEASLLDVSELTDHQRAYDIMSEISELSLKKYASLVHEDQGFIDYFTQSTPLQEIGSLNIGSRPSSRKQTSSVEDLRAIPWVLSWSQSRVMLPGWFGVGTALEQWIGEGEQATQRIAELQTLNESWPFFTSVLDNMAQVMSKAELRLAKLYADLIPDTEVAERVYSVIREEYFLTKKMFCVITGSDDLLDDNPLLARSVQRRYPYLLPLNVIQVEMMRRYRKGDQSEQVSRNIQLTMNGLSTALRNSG
Nature of the experiment: PEP carboxylase activity in crude extract, wild-type strain. It counts as biochemical. To be noted: crude extract of ATCC 13032, relative to Complete = 100%, change in absorbance at 340 nm/min. As for the experimental part: as §1, §2

The structures appear in SMILES notation.

As to `N[C@@H](CC(=O)O)C(=O)O` [Aspartate, L-aspartic acid], the results for the “PEP Carboxylase Activity +Aspartate (5 mM)” value in experiment [1] (5 mM aspartate) and in experiment [3] (5 mM aspartate) were 17% and 100%, respectively. Moreover, in experiment [2], the “inhibition of PEP carboxylase activity” value is “not substantially inhibited”.
Regarding `CC(=O)SCCNC(=O)CCNC(=O)[C@H](O)C(C)(C)COP(=O)(O)OP(=O)(O)OC[C@H]1O[C@@H](n2cnc3c(N)ncnc32)[C@H](O)[C@@H]1OP(=O)(O)O` [Acetyl CoA, acetyl coenzyme A], the “PEP Carboxylase Activity −Acetyl CoA” value stood at 15% in experiment [1] (acetyl CoA omitted) and 56% in experiment [3] (acetyl CoA omitted).
